# Measurements: article PMC3996151, “Safety and pharmacological characterization of the molecular tweezer CLR01 – a broad-spectrum inhibitor of amyloid proteins’ toxicity” (BMC Pharmacology & Toxicology, 2014)
# Marks after values point to notes of the source that are not given here.
# How the values were obtained:
# C57BL/6J mice [1] = assay: Acute toxicity: single IP injection, behaviour, histopathology and serum chemistry after 24 h; format: in vivo, mouse; details: for Alanine aminotransferase / Albumin / Alkaline phosphatase / Aspartate aminotransferase / Blood urea nitrogen / Cholesterol / Creatinine / Glucose / Lactate dehydrogenase / Total bilirubin / Total protein: serum, acute, mean
# Method: (§1) For acute-toxicity studies, 2-m old C57BL/6J mice were administered saline-vehicle, 10 mg/kg, or 100 mg/kg CLR01 by a single intraperitoneal (IP) injection. The mice were sacrificed 24-h after the injection. For chronic toxicity studies, 2-m old C57BL/6J mice were administered saline-vehicle, 3 mg/kg, or 10 mg/kg CLR01 by daily IP injection for 30 days. Acute-study mice were visually monitored for 1 h after injection and then every 50 min for 10 min over the first 6 h of the experiment for changes in activity and behavior. The mice also were monitored every 110 min for 10 min during the last 6 h of the experiment until they were sacrificed. Chronic-study mice were monitored for 1 h after injection and then 3 times a day for 10 min each, every day of the first week. During that week there were no appreciable changes in the behavior, appearance, or weight of the mice. Therefore, monitoring was reduced to twice a day during the remainder of the experiment. On all occasions, the mice were monitored for any signs of severe toxicity, including bruising or bleeding, pale mucous membranes or extremities, diarrhea, dehydration, neurological signs, such as difficulty ambulating or paralysis, tachypnea or dyspnea, or abdominal distension.
# (§2) Following the treatment, mice were anesthetized with pentobarbital and blood was collected by cardiac puncture and placed in tubes containing a clot activator for serum separation (Capiject T-MG tubes, Terumo Medical Products, Somerset, NJ). Then, the lungs were filled through the trachea with 4% paraformaldehyde to prevent collapse, and tissues (brain, heart-lung, liver, kidney, and spleen) were collected and fixed for 72 h in 4% paraformaldehyde at a ratio of ~1:10 tissue:fixative (v/v). Tissues then were transferred into a 70%-ethanol solution and transferred to the UCLA Mouse Pathology Core for paraffin embedding, sectioning, and tissue histopathology analysis. Serum was analyzed by the UCLA Division of Laboratory Animal Medicine (DLAM) Animal Serology & Molecular Diagnostic Laboratory for an 11-panel serum chemical analysis using the ACE Alera Clinical Chemistry system (Alfa Wassermann Diagnostic Technologies, West Caldwell, NJ). The panel included: alanine aminotransferase, aspartate aminotransferase, albumin, alkaline phosphatase, creatinine, total bilirubin, lactate dehydrogenase, blood urea nitrogen, cholesterol, total protein, and glucose.
# (§3) If CLR01 indeed operates by a process-specific mechanism and remodels the abnormal aggregation of amyloidogenic proteins at substantially lower concentrations than concentrations that would perturb normal physiological processes, one would expect the compound to have a high therapeutic index. To calculate the therapeutic index, a lethal dose must be reached. […] The next rational step was to test the safety margin of CLR01 in vivo. Based on the in vitro and cell culture data, we expected that 100 mg/kg would be lethal to mice and therefore used it as the highest dose in our safety-evaluation experiments. We assessed the safety of CLR01 in 2-m old, male, WT mice either 24 h following a single IP injection of 10 or 100 mg/kg (acute administration) or after daily IP injection of 3 or 10 mg/kg for 30 days (chronic administration). Following euthanasia, serum was collected for chemical analysis and tissues were harvested for histopathology evaluation.
# C57BL/6J mice [2] = assay: Chronic toxicity: daily IP injection for 30 days, behaviour, histopathology and serum chemistry; format: in vivo, mouse; details: for Alanine aminotransferase / Albumin / Alkaline phosphatase / Aspartate aminotransferase / Blood urea nitrogen / Cholesterol / Creatinine / Glucose / Lactate dehydrogenase / Total bilirubin / Total protein: serum, 2-m old WT mice, chronic, 30 day, mean
# Method: as §1, §2, §3
# [3] = Solubility in aqueous solutions; format: physicochemical
# [4] = Blood-brain barrier permeability with 3H-CLR01 IV (scintillation counting of blood and brain); format: in vivo, mouse; details: 40-μg/kg/day dose, 15-m old 3×Tg mice, estimate
# cytochrome P450 system = tested on: cytochrome P450 system; parameters: method as in PMID 23183235; details: up to 10-μM, compared to rifampicin positive control; cited from earlier work
# [5] = parameters: method as in PMID 23183235; details: human plasma; cited from earlier work
# [6] = 2-m old WT mice, 24 h after single IP dose 10 mg/kg, N = 8
# [7] = 2-m old WT mice, 24 h after single IP dose 100 mg/kg, N = 8
# [8] = 2-m old WT mice, 24 h after single IP dose 100 mg/kg, N = 8, p < 0.001 vs control
# [9] = 2-m old WT mice, 24 h after single IP dose 100 mg/kg, N = 8, p < 0.01 vs control
# [10] = daily IP 3 or 10 mg/kg for 30 days
smiles,measurement,setting,value
O=P(O)(O)Oc1c2c(c(OP(=O)(O)O)c3c1C1CC3c3cc4c(cc31)C1CC4c3ccccc31)C1CC2c2cc3c(cc21)C1CC3c2ccccc21 [CLR01],Single non-lethal dose relative to the efficacious dose,C57BL/6J mice [1]; 100 mg/kg single dose,"2,500 fold"
same,Alanine aminotransferase,C57BL/6J mice [1]; [6],36.1 U/L
same,Albumin,C57BL/6J mice [1]; [6],2.3 g/dL
same,Alkaline phosphatase,C57BL/6J mice [1]; [6],126.1 U/L
same,Aspartate aminotransferase,C57BL/6J mice [1]; [6],89.5 U/L
same,Blood urea nitrogen,C57BL/6J mice [1]; [6],19.8 mg/dL
same,Cholesterol,C57BL/6J mice [1]; [6],91.5 mg/dL
same,Creatinine,C57BL/6J mice [1]; [6],0.2 mg/dL
same,Glucose,C57BL/6J mice [1]; [6],297.8 mg/dL
same,Lactate dehydrogenase,C57BL/6J mice [1]; [6],325.2 U/L
same,Total bilirubin,C57BL/6J mice [1]; [6],0.2 mg/dL
same,Total protein,C57BL/6J mice [1]; [6],3.7 g/dL
same,Albumin,C57BL/6J mice [1]; [7],1.9 g/dL
same,Alkaline phosphatase,C57BL/6J mice [1]; [7],101.5 U/L
same,Blood urea nitrogen,C57BL/6J mice [1]; [7],22.0 mg/dL
same,Creatinine,C57BL/6J mice [1]; [7],0.4 mg/dL
same,Total bilirubin,C57BL/6J mice [1]; [7],0.3 mg/dL
same,Total protein,C57BL/6J mice [1]; [7],3.6 g/dL
same,Alanine aminotransferase,C57BL/6J mice [1]; [8],1282.9*** U/L
same,Glucose,C57BL/6J mice [1]; [8],104.3*** mg/dL
same,Lactate dehydrogenase,C57BL/6J mice [1]; [8],2439.8*** U/L
same,Aspartate aminotransferase,C57BL/6J mice [1]; [9],565.3** U/L
same,Cholesterol,C57BL/6J mice [1]; [9],20.8** mg/dL
same,Behavior (levels and type of activity and grooming),C57BL/6J mice [1]; single IP 10 mg/kg,behaved indistinguishably from control mice
same,Incidence of liver degeneration and necrosis,"C57BL/6J mice [1]; single IP 10 mg/kg, 24 h",one of eight
same,Duration of decreased activity and droopy eyelids in some mice,C57BL/6J mice [1]; single IP 100 mg/kg,up to 2 h
same,Duration of signs of distress following the injection,C57BL/6J mice [1]; single IP 100 mg/kg,~ 30 min
same,Behavior after injection,"C57BL/6J mice [1]; single IP 100 mg/kg, 2-m old WT mice",obvious signs of distress
same,Survival,"C57BL/6J mice [1]; single IP 100 mg/kg, 24 h",all the mice in the high-dose group survived
same,Liver histopathology,"C57BL/6J mice [1]; single IP 100 mg/kg, 24 h, all mice, centrilobular and midlobular regions",liver degeneration and necrosis
same,"Histopathology of heart, lung, spleen and brain","C57BL/6J mice [1]; single IP 10 or 100 mg/kg, 24 h",indistinguishable from those of control mice
same,Lethal dose,"C57BL/6J mice [1]; single IP injection, mice",> 100 mg/kg
same,Chronically administered dose without toxicity relative to the efficacious dose of 40 μg/kg/day,C57BL/6J mice [2]; 10 mg/kg/day,250 times
same,Liver histopathology,"C57BL/6J mice [2]; daily IP 3 mg/kg for 30 days, a few mice, judged not pathogenic and unlikely related to treatment",mild-to-moderate multifocal extramedullary hematopoiesis in the liver
same,Pancreas finding,"C57BL/6J mice [2]; daily IP 3 mg/kg for 30 days, two mice, unlikely related to treatment",Mild pancreatitis
same,Reduction in blood cholesterol compared to the control group,C57BL/6J mice [2]; daily IP 10 mg/kg for 30 days,~ 40%
same,Tissue histopathology,C57BL/6J mice [2]; daily IP 10 mg/kg for 30 days,no signs of tissue pathology or liver necrosis
same,Behavior (levels and type of activity and grooming),C57BL/6J mice [2]; [10],behaved indistinguishably from control mice
same,"Histopathology of heart, lung, spleen and brain",C57BL/6J mice [2]; [10],indistinguishable from vehicle-treated mice
same,Alanine aminotransferase,"C57BL/6J mice [2]; daily IP dose 3 mg/kg, N = 10",43.1 U/L
same,Albumin,"C57BL/6J mice [2]; daily IP dose 3 mg/kg, N = 10",2.8 g/dL
same,Alkaline phosphatase,"C57BL/6J mice [2]; daily IP dose 3 mg/kg, N = 10",104.4 U/L
same,Aspartate aminotransferase,"C57BL/6J mice [2]; daily IP dose 3 mg/kg, N = 10",150.9 U/L
same,Blood urea nitrogen,"C57BL/6J mice [2]; daily IP dose 3 mg/kg, N = 10",22.3 mg/dL
same,Cholesterol,"C57BL/6J mice [2]; daily IP dose 3 mg/kg, N = 10",80.9 mg/dL
same,Creatinine,"C57BL/6J mice [2]; daily IP dose 3 mg/kg, N = 10",0.3 mg/dL
same,Glucose,"C57BL/6J mice [2]; daily IP dose 3 mg/kg, N = 10",256.7 mg/dL
same,Lactate dehydrogenase,"C57BL/6J mice [2]; daily IP dose 3 mg/kg, N = 10",507.0 U/L
same,Total bilirubin,"C57BL/6J mice [2]; daily IP dose 3 mg/kg, N = 10",0.2 mg/dL
same,Total protein,"C57BL/6J mice [2]; daily IP dose 3 mg/kg, N = 10",4.7 g/dL
same,Alanine aminotransferase,"C57BL/6J mice [2]; daily IP dose 10 mg/kg, N = 9",38.4 U/L
same,Albumin,"C57BL/6J mice [2]; daily IP dose 10 mg/kg, N = 9",2.7 g/dL
same,Alkaline phosphatase,"C57BL/6J mice [2]; daily IP dose 10 mg/kg, N = 9",106.1 U/L
same,Aspartate aminotransferase,"C57BL/6J mice [2]; daily IP dose 10 mg/kg, N = 9",236.2 U/L
same,Blood urea nitrogen,"C57BL/6J mice [2]; daily IP dose 10 mg/kg, N = 9",24.1 mg/dL
same,Creatinine,"C57BL/6J mice [2]; daily IP dose 10 mg/kg, N = 9",0.2 mg/dL
same,Glucose,"C57BL/6J mice [2]; daily IP dose 10 mg/kg, N = 9",233.9 mg/dL
same,Lactate dehydrogenase,"C57BL/6J mice [2]; daily IP dose 10 mg/kg, N = 9",483.0 U/L
same,Total bilirubin,"C57BL/6J mice [2]; daily IP dose 10 mg/kg, N = 9",0.2 mg/dL
same,Total protein,"C57BL/6J mice [2]; daily IP dose 10 mg/kg, N = 9",4.6 g/dL
same,Cholesterol,"C57BL/6J mice [2]; daily IP dose 10 mg/kg, N = 9, p < 0.01 vs control",56.8** mg/dL
same,Solubility in aqueous solutions,[3],soluble at millimolar concentrations
same,Estimated amount of CLR01 entering the brain per day,[4],~ 200 fmol
same,Activation of the cytochrome P450 system,cytochrome P450 system,Minimal activation
same,Stability,[5],100%
